45 compounds from patent US9096565B2, “Inhibitors of histone deacetylase” (MethylGene Inc., priority 2007, dated 2015) can be followed below.

This assay concerns the target one or more of HDAC-4, HDAC-5, HDAC-6, HDAC-7, HDAC-8, HDAC-9, HDAC-10 and HDAC-11. Put plainly: Inhibition of histone deacetylase enzymatic activity (summary statement over isoforms). Format: biochemical. The note with it: Table 3, selected examples; HDAC isoform not given. In outline:
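HDAC enzyme mix with compound was preincubated 5 min at room temperature. Reaction was started at 37 °C with Boc-Lys(trifluoroacetyl)-AMC substrate and run 20-30 min. It was stopped with trypsin (1 mg/mL) plus a known HDAC inhibitor to release the fluorogenic AMC.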

Bounds are passed on as bounds.

For the compound `CC(C)CCCOc1ccc(C(C(=O)NO)c2ccccc2)cc1` (stereo not drawn) [Compound 3-56, N-hydroxy-2-(4-(4-methylpentyloxy)phenyl)-2-phenylacetamide], the IC50 (commonly the concentration that inhibits the measured activity by half) was less than 1 µM. For the compound `O=C(NO)C(c1ccccc1)c1ccc(OCC2CCCCC2)cc1` (stereo not drawn) [Compound 3-57, 2-(4-(cyclohexylmethoxy)phenyl)-N-hydroxy-2-phenylacetamide], the IC50 is less than 1 µM. `Cc1cccc(COc2ccc(C(C(=O)NO)c3ccccc3)cc2)c1` (stereo not drawn) [Compound 3-58, N-hydroxy-2-(4-(3-methylbenzyloxy)phenyl)-2-phenylacetamide] had an IC50 of less than 1 µM. `CC(Oc1ccc(C(C(=O)NO)c2ccccc2)cc1)c1ccccc1` (stereo not drawn) [Compound 3-59, N-hydroxy-2-phenyl-2-(4-(1-phenylethoxy)phenyl)acetamide] gave an IC50 of less than 1 µM. Consider `O=C(NO)C(c1ccccc1)c1ccc(OCc2ccccc2F)cc1` (stereo not drawn) [Compound 3-60, 2-(4-(2-fluorobenzyloxy)phenyl)-N-hydroxy-2-phenylacetamide], for which the IC50 was less than 1 µM. On to `N#Cc1ccccc1COc1ccc(C(C(=O)NO)c2ccccc2)cc1` (stereo not drawn) [Compound 3-61, 2-(4-(2-cyanobenzyloxy)phenyl)-N-hydroxy-2-phenylacetamide], for which the IC50 is less than 1 µM. The result for `Cc1cc(C)cc(COc2ccc(C(C(=O)NO)c3ccccc3)cc2)c1` (stereo not drawn) [Compound 3-62, 2-(4-(3,5-dimethylbenzyloxy)phenyl)-N-hydroxy-2-phenylacetamide] reads less than 1 µM.

Regarding `O=C(NO)C(c1ccccc1)c1ccc(OCCOc2ccccc2)cc1` (stereo not drawn) [Compound 3-64, N-hydroxy-2-(4-(2-phenoxyethoxy)phenyl)-2-phenylacetamide], the IC50 was less than 1 µM. `O=C(NO)C(c1ccccc1)c1ccc(OCc2ccccc2Cl)cc1` (stereo not drawn) [Compound 3-65, 2-(4-(2-chlorobenzyloxy)phenyl)-N-hydroxy-2-phenylacetamide] came in with an IC50 of less than 1 µM. `O=C(NO)C(c1ccccc1)c1ccc(OCc2cccc(Cl)c2)cc1` (stereo not drawn) [Compound 3-66, 2-(4-(3-chlorobenzyloxy)phenyl)-N-hydroxy-2-phenylacetamide] returned an IC50 of less than 1 µM. In turn, `O=C(NO)C(c1ccccc1)c1ccc(OCc2ccc(F)cc2F)cc1` (stereo not drawn) [Compound 3-67, 2-(4-(2,4-difluorobenzyloxy)phenyl)-N-hydroxy-2-phenylacetamide] gave an IC50 of less than 1 µM.

Consider `O=C(NO)C(c1ccccc1)c1ccc(OCCOCc2ccccc2)cc1` (stereo not drawn) [Compound 3-68, 2-(4-(2-(benzyloxy)ethoxy)phenyl)-N-hydroxy-2-phenylacetamide], for which the IC50 was less than 1 µM. The result for `O=C(NO)C(c1ccccc1)c1ccc(OCCOc2ccc(F)cc2)cc1` (stereo not drawn) [Compound 3-69, 2-(4-(2-(4-fluorophenoxy)ethoxy)phenyl)-N-hydroxy-2-phenylacetamide] reads less than 1 µM; that for `CC(C)(C)c1ccc(COc2ccc(C(C(=O)NO)c3ccccc3)cc2)cc1` (stereo not drawn) [Compound 3-70, 2-(4-(4-tert-butylbenzyloxy)phenyl)-N-hydroxy-2-phenylacetamide], less than 1 µM; that for `O=C(NO)C(c1ccccc1)c1ccc(OCc2cccc(C(F)(F)F)c2)cc1` (stereo not drawn) [Compound 3-71, N-hydroxy-2-phenyl-2-(4-(3-(trifluoromethyl)benzyloxy)phenyl)acetamide], less than 1 µM.

`CC(C)Nc1cccc(C(C(=O)NO)c2ccccc2)c1` (stereo not drawn) [Compound 3-72, N-hydroxy-2-(3-(isopropylamino)phenyl)-2-phenylacetamide]: the IC50 is 1 to 15 µM. `O=C(NO)C(c1ccccc1)c1cccc(Nc2ccccc2)c1` (stereo not drawn) [Compound 3-73, N-hydroxy-2-phenyl-2-(3-(phenylamino)phenyl)acetamide] yielded an IC50 of 1 to 15 µM.

In turn, `O=C(NO)C(c1ccccc1)c1cccc(NCc2ccccn2)c1` (stereo not drawn) [Compound 3-74, N-hydroxy-2-phenyl-2-(3-(pyridin-2-ylmethylamino)phenyl)acetamide] gave an IC50 of less than 1 µM.

`CC(=O)N1CCN(c2cccc(C(C(=O)NO)c3ccccc3)c2)CC1` (stereo not drawn) [Compound 3-75, 2-(3-(4-acetylpiperazin-1-yl)phenyl)-N-hydroxy-2-phenylacetamide] yielded an IC50 of less than 1 µM. With `O=C(NO)C(c1ccccc1)c1cccc(N2CCC(N3CCCC3)CC2)c1` (stereo not drawn) [Compound 3-76, N-hydroxy-2-phenyl-2-(3-(4-(pyrrolidin-1-yl)piperidin-1-yl)phenyl)acetamide], the IC50 was less than 1 µM. Regarding `O=C(NO)C(c1ccccc1)c1cccc(N2CCN(c3ccc(F)cc3)CC2)c1` (stereo not drawn) [Compound 3-78, 2-(3-(4-(4-fluorophenyl)piperazin-1-yl)phenyl)-N-hydroxy-2-phenylacetamide], the IC50 is 1 to 15 µM. The compound `CC(C)Nc1ccc(C(C(=O)NO)c2ccccc2)cc1` (stereo not drawn) [Compound 3-79, N-hydroxy-2-(4-(isopropylamino)phenyl)-2-phenylacetamide] registered an IC50 of less than 1 µM. In the case of `O=C(NO)C(c1ccccc1)c1ccc(Nc2ccccc2)cc1` (stereo not drawn) [Compound 3-80, N-hydroxy-2-phenyl-2-(4-(phenylamino)phenyl)acetamide], the IC50 was less than 1 µM. With `O=C(NO)C(c1ccccc1)c1ccc(NCc2ccccn2)cc1` (stereo not drawn) [Compound 3-81, N-hydroxy-2-phenyl-2-(4-(pyridin-2-ylmethylamino)phenyl)acetamide], the IC50 was less than 1 µM. `CC(=O)N1CCN(c2ccc(C(C(=O)NO)c3ccccc3)cc2)CC1` (stereo not drawn) [Compound 3-82, 2-(4-(4-acetylpiperazin-1-yl)phenyl)-N-hydroxy-2-phenylacetamide] had an IC50 of less than 1 µM. As to `O=C(NO)C(c1ccccc1)c1ccc(N2CCC(N3CCCC3)CC2)cc1` (stereo not drawn) [Compound 3-83, N-hydroxy-2-phenyl-2-(4-(4-(pyrrolidin-1-yl)piperidin-1-yl)phenyl)acetamide], the IC50 was less than 1 µM.

In turn, `O=C(NO)C(c1ccccc1)c1ccc(N2CCN(c3ccc(F)cc3)CC2)cc1` (stereo not drawn) [Compound 3-84, 2-(4-(4-(4-fluorophenyl)piperazin-1-yl)phenyl)-N-hydroxy-2-phenylacetamide] yielded a half-maximal inhibitory concentration (IC50) of less than 1 µM. Compound `O=C(NO)C(c1ccccc1)c1ccc(OC/C=C/c2ccccc2)cc1` (stereo not drawn) [Compound 3-85, (E)-2-(4-(cinnamyloxy)phenyl)-N-hydroxy-2-phenylacetamide] gave an IC50 of less than 1 µM. The result for `O=C(NO)C(c1ccccc1)c1ccc(OCc2cccc(OC(F)(F)F)c2)cc1` (stereo not drawn) [Compound 3-86, N-hydroxy-2-phenyl-2-(4-(3-(trifluoromethoxy)benzyloxy)phenyl)acetamide] reads less than 1 µM; that for `O=C(NO)C(c1ccccc1)c1cccc(OCc2cccc(OC(F)(F)F)c2)c1` (stereo not drawn) [Compound 3-87, N-hydroxy-2-phenyl-2-(3-(3-(trifluoromethoxy)benzyloxy)phenyl)acetamide], 1 to 15 µM; that for `CN(C)CCOc1cccc(C(C(=O)NO)c2ccccc2)c1` (stereo not drawn) [Compound 3-88, 2-(3-(2-(dimethylamino)ethoxy)phenyl)-N-hydroxy-2-phenylacetamide], 1 to 15 µM. The compound `COCCOCCOc1cccc(C(C(=O)NO)c2ccccc2)c1` (stereo not drawn) [Compound 3-89, N-hydroxy-2-(3-(2-(2-methoxyethoxy)ethoxy)phenyl)-2-phenylacetamide] showed an IC50 of less than 1 µM. For `COCCOCCOc1ccc(C(C(=O)NO)c2ccccc2)cc1` (stereo not drawn) [Compound 3-90, N-hydroxy-2-(4-(2-(2-methoxyethoxy)ethoxy)phenyl)-2-phenylacetamide], the IC50 was less than 1 µM. Turning to `O=C(NO)C(c1ccccc1)N1CCC(O)(c2ccccc2)CC1` (stereo not drawn) [Compound 5-1, N-hydroxy-2-(4-hydroxy-4-phenylpiperidin-1-yl)-2-phenylacetamide], the IC50 is less than 1 µM. `O=C(NO)C(c1ccccc1)n1ccc(-c2ccccc2)c1` (stereo not drawn) [Compound 5-2, N-hydroxy-2-phenyl-2-(3-phenyl-1H-pyrrol-1-yl)acetamide] displayed an IC50 of less than 1 µM. Regarding `O=C(NO)C(c1ccccc1)c1nnc(Cc2c[nH]c3ccccc23)s1` (stereo not drawn) [Compound 5-3, 2-(5-((1H-indol-3-yl)methyl)-1,3,4-thiadiazol-2-yl)-N-hydroxy-2-phenylacetamide], the IC50 is less than 1 µM. Compound `O=C(NO)C(c1ccccc1)c1nnc(-c2cccs2)s1` (stereo not drawn) [Compound 5-4, N-hydroxy-2-phenyl-2-(5-(thiophen-2-yl)-1,3,4-thiadiazol-2-yl)acetamide] returned an IC50 of less than 1 µM. The compound `CN(C)c1ccc(C(C(=O)NO)c2ccc(O)cc2)cc1` (stereo not drawn) [Compound 5-5, 2-(4-(dimethylamino)phenyl)-N-hydroxy-2-(4-hydroxyphenyl)acetamide] registered a half-inhibitory concentration (IC50) of less than 1 µM.

In turn, `O=C(NO)C(c1ccccc1)[S+]([O-])c1ccccc1` (stereo not drawn) [Compound 5-6, N-hydroxy-2-phenyl-2-(phenylsulfinyl)acetamide] yielded an IC50 of 1 to 15 µM. In the case of `O=C(NO)C(c1ccccc1)N1CC=C(c2c[nH]c3ccccc23)CC1` (stereo not drawn) [Compound 5-7, 2-(4-(1H-indol-3-yl)-5,6-dihydropyridin-1(2H)-yl)-N-hydroxy-2-phenylacetamide], the IC50 was less than 1 µM. Compound `O=C(NO)C(c1ccccc1)N1CCN(S(=O)(=O)c2ccccc2)CC1` (stereo not drawn) [Compound 5-8, N-hydroxy-2-phenyl-2-(4-(phenylsulfonyl)piperazin-1-yl)acetamide] gave an IC50 of less than 1 µM.

`COc1ccc(-c2ccc(C(C(=O)NO)c3ccccc3)cc2)cc1` (stereo not drawn) [Compound 5-9, N-hydroxy-2-(4′-methoxybiphenyl-4-yl)-2-phenylacetamide] yielded an IC50 of less than 1 µM.

As to `O=C(NO)C(c1ccccc1)c1ccc(-c2ccncc2)cc1` (stereo not drawn) [Compound 5-10, N-hydroxy-2-phenyl-2-(4-(pyridin-4-yl)phenyl)acetamide], the concentration for half-maximal inhibition (IC50) is less than 1 µM.

Compound `O=C(NO)C(c1ccccc1)N1CCN(c2ncc(-c3ccccc3)cn2)CC1` (stereo not drawn) [Compound 5-11, N-hydroxy-2-phenyl-2-(4-(5-phenylpyrimidin-2-yl)piperazin-1-yl)acetamide] came in with an IC50 of less than 1 µM.

For the compound `O=C(NO)C(c1ccccc1)c1ccc(-c2cccnc2)cc1` (stereo not drawn) [Compound 5-12, N-hydroxy-2-phenyl-2-(4-(pyridin-3-yl)phenyl)acetamide], the IC50 was less than 1 µM.
